From US8552175B2, “Sulfur transfer reagents for oligonucleotide synthesis” (A.M. Chemicals, Inc., priority 2009, dated 2013)

How the values were obtained:
[1] = system: solid support-bound internucleosidic phosphite triesters; test: Sulfur transfer in solid phase synthesis of oligonucleotide phosphorothioates, HPLC and ES MS; conditions: for contact time required for complete sulfur transfer: optimized conditions

Row | melting point [°C] | Compound | contact time required for complete sulfur transfer ([1]; 0.02 M solution of reagent) [min] | contact time required for complete sulfur transfer ([1]; 0.05 M solution of reagent) [min] | contact time required for complete sulfur transfer ([1]; 0.1 M solution of reagent) [min] | performance in oligonucleotide synthesis compared with compound 1 ([1]; in words)
1 | – | 5-Phenyl-3H-1,2,4-dithiazol-3-thione [Compound 7] | 2 | 1 | 0.5 | substantially similar performance
2 | 73 to 75 | S=c1ncss1 [Compound 6, 3H-1,2,4-dithiazol-3-thione] | – | – | – | –
